Reference: patent US10004701B2, “Methods and compositions for treating infection” (UNIVERSITY OF ROCHESTER, priority 2012, dated 2018)
Counter-ions that a name gives are not always drawn. Like-named read-outs stand apart in the source and are kept apart here.

What was measured:
Assay in all cases: AK assay 384-well format, Prestwick library screening
E. faecium = type: cell-based, Enterococcus faecium; conditions: 50 μM final drug concentration; for fold induction at 50 µM: Enterococcus faecium, 3 h
[1] = test system: S. aureus strain USA300-0114; type: cell-based, Staphylococcus aureus; conditions: 50 μM final drug concentration; for fold induction at 50 µM: Staphylococcus aureus, USA300, 3 h
K. pneumoniae = type: cell-based, Klebsiella pneumoniae; conditions: 50 μM final drug concentration; for fold induction at 50 µM: Klebsiella pneumoniae, 3 h
[2] = test system: A. baumannii strain 98-37-09; type: cell-based, Acinetobacter baumannii; conditions: 50 μM final drug concentration; for fold induction at 50 µM: Acinetobacter baumannii, 983709, 3 h
P. aeruginosa = type: cell-based, Pseudomonas aeruginosa; conditions: 50 μM final drug concentration; for fold induction at 50 µM: Pseudomonas aeruginosa, 3 h
E. cloacae = type: cell-based, Enterobacter cloacae; conditions: 50 μM final drug concentration; for fold induction at 50 µM: Enterobacter cloacae, 3 h
E. coli = type: cell-based, Escherichia coli; conditions: 50 μM final drug concentration; for fold induction at 50 µM: Escherichia coli, 3 h
[3] = planktonic, cutoff for positive-scoring molecules 3-fold increase, read-out: AK-based Prestwick Library Screening Results, E. faecium (fold increase in extracellular AK activity)
[4] = planktonic, cutoff for positive-scoring molecules 3-fold increase, read-out: AK-based Prestwick Library Screening Results, S. aureus (fold increase in extracellular AK activity)
[5] = planktonic, cutoff for positive-scoring molecules 3-fold increase, read-out: AK-based Prestwick Library Screening Results, K. pneumoniae (fold increase in extracellular AK activity)
[6] = planktonic, cutoff for positive-scoring molecules 3-fold increase, read-out: AK-based Prestwick Library Screening Results, A. baumannii (fold increase in extracellular AK activity)
[7] = planktonic, cutoff for positive-scoring molecules 3-fold increase, read-out: AK-based Prestwick Library Screening Results, P. aeruginosa (fold increase in extracellular AK activity)
[8] = planktonic, cutoff for positive-scoring molecules 3-fold increase, read-out: AK-based Prestwick Library Screening Results, E. cloacae (fold increase in extracellular AK activity)
[9] = planktonic, cutoff for positive-scoring molecules 3-fold increase, read-out: AK-based Prestwick Library Screening Results, E. coli (fold increase in extracellular AK activity)
[10] = 384-well format, cutoff for positive-scoring molecules 3-fold increase
[11] = planktonic E. faecium, 384-well, cutoff for positive-scoring molecules 3-fold increase, read-out: AK-based Prestwick Library Screening Results: E. faecium (increase in extracellular AK activity)
[12] = planktonic S. aureus, 384-well, cutoff for positive-scoring molecules 3-fold increase, read-out: AK-based Prestwick Library Screening Results: S. aureus (increase in extracellular AK activity)
[13] = planktonic K. pneumoniae, 384-well, cutoff for positive-scoring molecules 3-fold increase, read-out: AK-based Prestwick Library Screening Results: K. pneumoniae (increase in extracellular AK activity)
[14] = planktonic A. baumannii, 384-well, cutoff for positive-scoring molecules 3-fold increase, read-out: AK-based Prestwick Library Screening Results: A. baumannii (increase in extracellular AK activity)
[15] = planktonic P. aeruginosa, 384-well, cutoff for positive-scoring molecules 3-fold increase, read-out: AK-based Prestwick Library Screening Results: P. aeruginosa (increase in extracellular AK activity)
[16] = planktonic E. cloacae, 384-well, cutoff for positive-scoring molecules 3-fold increase, read-out: AK-based Prestwick Library Screening Results: E. cloacae (increase in extracellular AK activity)
[17] = planktonic E. coli, 384-well, cutoff for positive-scoring molecules 3-fold increase, read-out: AK-based Prestwick Library Screening Results: E. coli (increase in extracellular AK activity)

Nc1ccc(C(=O)NCC(=O)O)cc1 [Aminohippuric acid]
fold induction at 50 µM (E. faecium; [3]): 0.9 | fold induction at 50 µM [1, 4]: 0.6 | fold induction at 50 µM (K. pneumoniae; [5]): 0.6 | fold induction at 50 µM [2, 6]: 0.7 | fold induction at 50 µM (P. aeruginosa; [7]): 0.7 | fold induction at 50 µM (E. cloacae; [8]): 0.8 | fold induction at 50 µM (E. coli; [9]): 0.7

Cn1c(=O)c2[nH]cnc2n(C)c1=O [Aminophylline]
fold induction at 50 µM (E. faecium; [3]): 0.9 | fold induction at 50 µM [1, 4]: 0.6 | fold induction at 50 µM (K. pneumoniae; [5]): 0.6 | fold induction at 50 µM [2, 6]: 0.7 | fold induction at 50 µM (P. aeruginosa; [7]): 0.8 | fold induction at 50 µM (E. cloacae; [8]): 0.8 | fold induction at 50 µM (E. coli; [9]): 0.6

c1ccc(CNc2ncnc3[nH]cnc23)cc1 [Aminopurine, 6-benzyl]
AK-based Prestwick Library Screening Results, E. faecium (increase in extracellular AK activity) (E. faecium; [10]): 0.9 | AK-based Prestwick Library Screening Results, S. aureus (increase in extracellular AK activity) [1, 10]: 0.7 | AK-based Prestwick Library Screening Results, K. pneumoniae (increase in extracellular AK activity) (K. pneumoniae; [10]): 0.8 | AK-based Prestwick Library Screening Results, A. baumannii (increase in extracellular AK activity) [2, 10]: 0.8 | AK-based Prestwick Library Screening Results, P. aeruginosa (increase in extracellular AK activity) (P. aeruginosa; [10]): 0.9 | AK-based Prestwick Library Screening Results, E. cloacae (increase in extracellular AK activity) (E. cloacae; [10]): 1.1 | AK-based Prestwick Library Screening Results, E. coli (increase in extracellular AK activity) (E. coli; [10]): 0.9

CCCCc1oc2ccccc2c1C(=O)c1cc(I)c(OCCN(CC)CC)c(I)c1 [Amiodarone hydrochloride]
fold induction at 50 µM (E. faecium; [11]): 1.7 | fold induction at 50 µM [1, 12]: 0.7 | fold induction at 50 µM (K. pneumoniae; [13]): 0.6 | fold induction at 50 µM [2, 14]: 2.2 | fold induction at 50 µM (P. aeruginosa; [15]): 0.5 | fold induction at 50 µM (E. cloacae; [16]): 0.5 | fold induction at 50 µM (E. coli; [17]): 0.7

CN(C)CCCO[C@@H]1[C@H]2OC(C)(C)O[C@H]2O[C@@H]1[C@H](O)CO [Amiprilose hydrochloride]
fold induction at 50 µM (E. faecium; cutoff for positive-scoring molecules 3-fold increase, read-out: AK-based Prestwick Library Screening Results, E. faecium (fold increase in extracellular AK activity)): 1.1 | fold induction at 50 µM ([1]; cutoff for positive-scoring molecules 3-fold increase, read-out: AK-based Prestwick Library Screening Results, S. aureus (fold increase in extracellular AK activity)): 1.3 | fold induction at 50 µM (K. pneumoniae; cutoff for positive-scoring molecules 3-fold increase, read-out: AK-based Prestwick Library Screening Results, K. pneumoniae (fold increase in extracellular AK activity)): 0.9 | fold induction at 50 µM ([2]; cutoff for positive-scoring molecules 3-fold increase, read-out: AK-based Prestwick Library Screening Results, A. baumannii (fold increase in extracellular AK activity)): 1.2 | fold induction at 50 µM (P. aeruginosa; cutoff for positive-scoring molecules 3-fold increase, read-out: AK-based Prestwick Library Screening Results, P. aeruginosa (fold increase in extracellular AK activity)): 1.1 | fold induction at 50 µM (E. cloacae; cutoff for positive-scoring molecules 3-fold increase, read-out: AK-based Prestwick Library Screening Results, E. cloacae (fold increase in extracellular AK activity)): 1.5 | fold induction at 50 µM (E. coli; cutoff for positive-scoring molecules 3-fold increase, read-out: AK-based Prestwick Library Screening Results, E. coli (fold increase in extracellular AK activity)): 1.3

CN(C)CCC=C1c2ccccc2CCc2ccccc21.Cl [Amitryptiline hydrochloride]
AK-based Prestwick Library Screening Results: E. faecium (increase in extracellular AK activity) (E. faecium; planktonic E. faecium, 384-well, […]): 1.0 | AK-based Prestwick Library Screening Results: S. aureus (increase in extracellular AK activity) ([1]; planktonic S. aureus, 384-well, […]): 1.4 | AK-based Prestwick Library Screening Results: K. pneumoniae (increase in extracellular AK activity) (K. pneumoniae; planktonic K. pneumoniae, 384-well, […]): 1.1 | AK-based Prestwick Library Screening Results: A. baumannii (increase in extracellular AK activity) ([2]; planktonic A. baumannii, 384-well, […]): 1.3 | AK-based Prestwick Library Screening Results: P. aeruginosa (increase in extracellular AK activity) (P. aeruginosa; planktonic P. aeruginosa, 384-well, […]): 1.0 | AK-based Prestwick Library Screening Results: E. cloacae (increase in extracellular AK activity) (E. cloacae; planktonic E. cloacae, 384-well, […]): 1.8 | AK-based Prestwick Library Screening Results: E. coli (increase in extracellular AK activity) (E. coli; planktonic E. coli, 384-well, […]): 1.2

CCN(CC)Cc1cc(Nc2ccnc3cc(Cl)ccc23)ccc1O [Amodiaquin dihydrochloride dihydrate]
fold induction at 50 µM (E. faecium; [11]): 1.1 | fold induction at 50 µM [1, 12]: 1.3 | fold induction at 50 µM (K. pneumoniae; [13]): 0.9 | fold induction at 50 µM [2, 14]: 1.5 | fold induction at 50 µM (P. aeruginosa; [15]): 1.2 | fold induction at 50 µM (E. cloacae; [16]): 1.4 | fold induction at 50 µM (E. coli; [17]): 1.2

Clc1ccc2c(c1)C(N1CCNCC1)=Nc1ccccc1O2 [Amoxapine]
fold induction at 50 µM (E. faecium; 384-well format, cutoff for positive-scoring molecules 3-fold increase, read-out: AK-based Prestwick Library Screening Results, E. faecium (increase in extracellular AK activity)): 0.9 | fold induction at 50 µM ([1]; 384-well format, cutoff for positive-scoring molecules 3-fold increase, read-out: AK-based Prestwick Library Screening Results, S. aureus (increase in extracellular AK activity)): 0.7 | fold induction at 50 µM (K. pneumoniae; 384-well format, cutoff for positive-scoring molecules 3-fold increase, read-out: AK-based Prestwick Library Screening Results, K. pneumoniae (increase in extracellular AK activity)): 0.8 | fold induction at 50 µM ([2]; 384-well format, cutoff for positive-scoring molecules 3-fold increase, read-out: AK-based Prestwick Library Screening Results, A. baumannii (increase in extracellular AK activity)): 0.8 | fold induction at 50 µM (P. aeruginosa; 384-well format, cutoff for positive-scoring molecules 3-fold increase, read-out: AK-based Prestwick Library Screening Results, P. aeruginosa (increase in extracellular AK activity)): 0.9 | fold induction at 50 µM (E. cloacae; 384-well format, cutoff for positive-scoring molecules 3-fold increase, read-out: AK-based Prestwick Library Screening Results, E. cloacae (increase in extracellular AK activity)): 0.9 | fold induction at 50 µM (E. coli; 384-well format, cutoff for positive-scoring molecules 3-fold increase, read-out: AK-based Prestwick Library Screening Results, E. coli (increase in extracellular AK activity)): 1

CC1(C)S[C@@H]2[C@H](NC(=O)[C@H](N)c3ccc(O)cc3)C(=O)N2[C@H]1C(=O)O [Amoxicillin]
fold induction at 50 µM (E. faecium; planktonic E. faecium, cutoff for positive-scoring molecules 3-fold increase, read-out: AK-based Prestwick Library Screening Results, E. faecium (increase in extracellular AK activity)): 1.4 | fold induction at 50 µM ([1]; planktonic S. aureus, cutoff for positive-scoring molecules 3-fold increase, read-out: AK-based Prestwick Library Screening Results, S. aureus (increase in extracellular AK activity)): 0.4 | fold induction at 50 µM (K. pneumoniae; planktonic K. pneumoniae, cutoff for positive-scoring molecules 3-fold increase, read-out: AK-based Prestwick Library Screening Results, K. pneumoniae (increase in extracellular AK activity)): 0.7 | fold induction at 50 µM ([2]; planktonic A. baumannii, cutoff for positive-scoring molecules 3-fold increase, read-out: AK-based Prestwick Library Screening Results, A. baumannii (increase in extracellular AK activity)): 1.7 | fold induction at 50 µM (P. aeruginosa; planktonic P. aeruginosa, cutoff for positive-scoring molecules 3-fold increase, read-out: AK-based Prestwick Library Screening Results, P. aeruginosa (increase in extracellular AK activity)): 0.7 | fold induction at 50 µM (E. cloacae; planktonic E. cloacae, cutoff for positive-scoring molecules 3-fold increase, read-out: AK-based Prestwick Library Screening Results, E. cloacae (increase in extracellular AK activity)): 1 | fold induction at 50 µM (E. coli; planktonic E. coli, cutoff for positive-scoring molecules 3-fold increase, read-out: AK-based Prestwick Library Screening Results, E. coli (increase in extracellular AK activity)): 10.6
